Reference: paper PMC7957188, “An antitumor peptide RS17‐targeted CD47, design, synthesis, and antitumor activity” (Cancer Medicine, 2021)
Where no end group is shown, it is not given here. The star is where a group is joined. FITC = O=C1OC2(c3ccc(O)cc3Oc3cc(O)ccc32)c2ccc(NC(=S)*)cc21; Acp = not defined here

Tests used:
[1] = Body weight / tolerability in nude mice, ex vivo experiment; conditions: 7 days
Description: Female Balb/c nude mice (4–5 weeks) were bred in the absence of pathogens to assess the antitumor activity of indirect therapies in vivo.
RFP‐positive HepG2 cells at a concentration of 2 × 10^7/ml were first co‐incubated for 1 h with 1 μM B6H12 (positive control) or RS17. The nude mice were separated into three groups (5 per group) and subcutaneously injected with 200 μl RFP‐positive HepG2 cells into the ventral side. Normal feeding lasted for 7 days. Body weight and tumor volume were measured in nude mice. Tumor dimensions were measured in two directions with and the formula of ½ × a × b ^2 (a, length; b, width) was used to calculate tumor volume. The intravital fluorescence intensity of the tumors were detected with PerkinElmer IVIS Spectrum on day 7.

RFP HepG2 cells = conditions: in vivo, sc, 20 mg/kg
Description: RFP (CMV‐Puro) lentiviral particles were purchased from HanBio. 5 × 10^4 HepG2 in DMEM medium were seeded into each well of a 12‐well plate in presence of 10% FBS. A 6 μg/ml of Polybrene and 20 MOI lentivirus were added to each well. The cells were resuspended in DMEM medium in presence of 8 μg/ml puromycin after a 48‐h transfection. DMEM medium with 8 μg/ml of puromycin was replaced every 2 days for 1 week. RFP‐positive HepG2 cells were then acquired by flow cytometry. Polybrene and puromycin were from Sigma. Nude mice were subcutaneously injected with 2 × 10^7 RFP HepG2 cells into the ventral side and separated into three groups (5 per group). One of the groups was selected as the experimental group and received a daily subcutaneous injection with RS17 (20 mg/kg), the other two groups represented a positive control and a blank control and received a daily subcutaneous injection with B6H12 (20 mg/kg) and PBS, respectively. Daily injections were administered for 28 days. Body weight, tumor volume, and imaging on day 28 were carried out described above.

CD47 protein = molecular target: T1, CD47 protein (Homo sapiens, UniProt Q08722); experiment: Microscale thermophoresis (MST), RS17–CD47 interaction; assay type: binding; conditions: Monolith NT.115, NT‐Analysis, Cy5-labeled CD47 mixed 1:1 with diluted peptide, 5 min, room temperature, read-out: dissociation constant (Kd) for RS17 and CD47 interaction
T1 construct: CD47 protein was from Cloud‐Clone; purchased Cloud‐Clone
Description: CD47 protein was from Cloud‐Clone. The CD47 protein was dissolved in a buffer solution without primary amine compounds and exchanged by mixed column A. The CD47 protein was stained by Cy5 fluorescent dye (Ruixin Biological Technology) and after staining, the labeled protein was purified by column B. Finally, the RS17 peptides were diluted and mixed with the labeled protein in a 1:1 ratio. After incubating at room temperature for 5 min, samples were detected and data were processed by Monolith NT.115 and NT‐Analysis, which were from NanoTemper.
Microscale thermophoresis (MST) is an effective technique that accurately quantitates the interaction between two molecules. It depends on the thermo‐swimming movement of a molecule, which is a directional transfer of the molecule across a temperature gradient dependent on molecular properties such as molecular size, electric charge, and conformation. ^39 A Monolith NT.115 instrument was used as a platform to perform the MST experiment and the results were analyzed using the accompanying NT‐Analysis software.

SCC‐13 cells = experiment: Flow cytometry binding of FITC‐RS17 to SCC‐13 cells; assay type: cell-based, human; conditions: 1 μM FITC‐RS17, 1 h, 37℃
Description: (§1) The peptides were synthesized using the solid‐phase peptide synthesis method. Amino acid activation phase included 1‐hydroxybenzotriazole (HOBt) and N, N′‐diisopropylcarbodiimide (DIC). Deprotection agent was piperidine (PIP). Following synthesis, the peptides were cleaved with 90% of trifluoroacetic acid (TFA) and precipitated with ether to obtain the crude product. The crude peptides were purified by HPLC and the molecular weight were measured by online ESI‐MS, respectively. Besides, the FITC‐RS17 peptide was prepared by coupling with FITC through the Acp active group to RS17. The product was purified and analyzed by the same process.
(§2) The SCC‐13 human cutaneous squamous cell carcinoma cell lines, HepG2 human HCC cell line, THP‐1 human mononuclear cell line, and mouse mononuclear/macrophage cell lines were from Chinese Academy of Sciences in Shanghai. SCC‐13 and HepG2 cells were incubated in DMEM medium which contains 100 μg/ml of streptomycin and 50 μg/ml of penicillin. The medium also contains 10% of fetal bovine serum from Gibco Life Technologies. […]
(§3) The binding of RS17 to the CD47‐expressing cells were assessed by the Flow cytometry technique. […]. ^14 In brief, HepG2 and SCC‐13 cells were collected and adjusted to 3 × 10^6 cells/ml. […] After washing with PBS, the cells were analyzed with a flow cytometer (Miltenyi Biotec GmbH). Data were analyzed with FlowJo 7.6.

HepG2 cells = experiment: Flow cytometry binding of FITC‐RS17 to HepG2 cells; assay type: cell-based, human; conditions: 1 μM FITC‐RS17, 1 h, 37℃
Description: as §1, §2, §3

[2] = molecular target: CD47 on SCC-13 and HepG2 tumor cells (human (endogenous in SCC-13 and HepG2)) (UniProt Q08722)
Sequence of CD47 on SCC-13 and HepG2 tumor cells (human (endogenous in SCC-13 and HepG2)) (Q08722 19-323): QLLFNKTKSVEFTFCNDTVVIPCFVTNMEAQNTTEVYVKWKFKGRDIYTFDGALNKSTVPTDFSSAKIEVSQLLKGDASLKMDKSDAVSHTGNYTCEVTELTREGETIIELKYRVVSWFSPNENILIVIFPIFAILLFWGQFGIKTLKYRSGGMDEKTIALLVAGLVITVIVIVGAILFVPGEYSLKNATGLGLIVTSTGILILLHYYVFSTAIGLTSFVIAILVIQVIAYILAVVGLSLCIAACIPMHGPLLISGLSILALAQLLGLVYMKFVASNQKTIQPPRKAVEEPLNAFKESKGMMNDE

In the case of RRYKQDGGWSHWSPWSS [RS17], the tolerability [1] is reported as “well tolerated”, the “inhibition of tumor growth” value (RFP HepG2 cells) is reported as greater than 50% and the Kd (CD47 protein) is reported as 3.86 ± 0.789 nM.

In the case of “FITC‐RS17: prepared by coupling with FITC through the Acp active group to RS17 ({FITC-Acp}-RRYKQDGGWSHWSPWSS; reading uncertain)”, the “binding of FITC‐RS17 to SCC‐13 cells (in words)” value (SCC‐13 cells) is reported as “effectively bound” and the “binding of FITC‐RS17 to HepG2 cells (in words)” value (HepG2 cells) is reported as “effectively bound”.

B1: RS17 peptide (peptide)
peptide: RRYKQDGGWSHWSPWSS
B1 showed an in vivo: growth of HepG2 xenografts in nude mice with daily subcutaneous RS17 (20 mg/kg) for 28 days; pair blocked: CD47 on HepG2 and SIRPα on mouse macrophages [2] greater than 50%.
